This is an account of results in patent US8937044B2, “Process for the synchronization of ovulation for timed breeding without heat detection” (priority 2003, dated 2015).

Structures are written as SMILES.

What all share (type): in vivo, swine
The subject of one test is LH. The test is described as follows: LH response (RIA) in ovariectomized estrogen primed gilt model, dose response study. The following applies: single injection of 50 mcg in SAIB. The method, then: A dose response study was performed using deslorelin in SAIB in an ovariectomized estrogen primed gilt model (Barb, et al. (1999) Proceed. Int'l. Symp. Control. Rel. Bioact. Mater., 26).

A further test concerns mature postpartum sows. Put plainly: Deslorelin at first detected estrus in postpartum sows, AI breeding (Example 2). As to the method:
Sows were assigned randomly in blocks of two to either control or to be injected intravulvar with 50 mcg of deslorelin in SAIB at the time of estrus detection for sows first detected in estrus in the a.m. and 12 hours later for those first detected in estrus in the p.m. Treated animals were bred AI upon detected estrus and again 24 hours later if still in estrus. Controls received a saline injection on first detected estrus behavior estrus detection and were bred according to the farm's normal procedures.

Test [1] concerns postpartum sows. Put plainly: Timed deslorelin injection 96 h post-weaning and single timed insemination without estrus detection (Example 3). As to the method: (§1) Approximately 170 postpartum sows were randomly divided into two equal groups comprised of controls and treated. Following weaning, the controls were detected for estrus and bred following the normal standard operating procedures for the farms on which they resided. The treated sows received a 50 mcg dose of deslorelin in SAIB at 96 hours post-weaning and were bred with a single insemination 28+/−2 hours later with no regard to estrus detection. The sows were examined for pregnancy by ultrasound at 21 days and slaughtered around 28 days post breeding. The entire reproductive tract was removed and corpora lutea and embryos were counted.

The test system of test [2] is postpartum sows. The test is described as follows: Litter size after deslorelin treatment in sows, three farm sites (Example 4). The following applies: Tables 3-5, three sites, regardless of estrus detection. From the text: Postpartum sows were randomly distributed into three different groups comprised of Controls, Treatment 1, and Treatment 2, with the exception of Site 3, which was divided into two groups, Control and Treatment 2. Control sows were detected for estrus following weaning, and bred following the normal standard operating procedures for the farms on which they resided. Treatment 1 sows were detected for estrus following weaning, and received a 50 mcg dose of deslorelin in the morning when standing and were bred by AI 4 hours later and again at 24+/−2 hours later. Treatment 2 sows received a 50 mcg dose of deslorelin in SAIB at 96 or 120 hours post-weaning and were bred with a single insemination 28+/−2 hours later with, no regard to estrus detection.

For test [3], the system named is postpartum sows. Put plainly: Pregnancy rate after deslorelin treatment in sows, summary of Tables 2-5. The note with it: Table 6 summary. The method, then: as §1, with “counted. Postpartum sows were randomly distributed into three different groups comprised of Controls, Treatment 1, and Treatment 2, with the exception of Site 3, which was divided into two groups, Control and Treatment 2. Control sows were detected for estrus following weaning, and bred following the normal standard operating procedures for the farms on which they resided. Treatment 1 sows were detected for estrus following weaning, and received a 50 mcg dose of deslorelin in the morning when standing and were bred by AI 4 hours later and again at 24+/−2 hours later. Treatment 2 sows received a 50 mcg dose of deslorelin in SAIB at 96 or 120 hours post-weaning and were bred with a single insemination 28+/−2 hours later with, no regard to estrus detection.” for “counted.”

`CCNC(=O)[C@@H]1CCCN1C(=O)[C@H](CCCN=C(N)N)NC(=O)[C@H](CC(C)C)NC(=O)[C@@H](Cc1c[nH]c2ccccc12)NC(=O)[C@H](Cc1ccc(O)cc1)NC(=O)[C@H](CO)NC(=O)[C@H](Cc1c[nH]c2ccccc12)NC(=O)[C@H](Cc1cnc[nH]1)NC(=O)[C@@H]1CCC(=O)N1` [Deslorelin, deslorelin]: in the test with LH, the “time at which LH returned to base level” value was not above 18 h. Further, the “LH peak relative to normal value” in the test with LH (normal value from Hansel et al. 1973) is reported as “about twice normal value”. Moreover, the “Pregnancy Rate” value with mature postpartum sows (50 μg deslorelin acetate (1 ml) intravulvar at first estrus detection, AI, again next day if in estrus, n = 75) is recorded as 91%; with postpartum sows [1] (50 mcg in SAIB 96 h post-weaning, single insemination 28+/-2 h later, no estrus detection) it was 71%. Besides, the “pregnancy rates, Control versus Treated (in words)” value in the test with mature postpartum sows (50 mcg in SAIB intravulvar at estrus detection) was “no significant difference”. Further, the “Embryo Survival” value in the test with postpartum sows [1] (50 mcg in SAIB 96 h post-weaning, single insemination 28+/-2 h later) amounted to 64%. Moreover, the “Sows Pregnant” value in the test with postpartum sows [1] (50 mcg in SAIB 96 h post-weaning, single insemination 28+/-2 h later, 84 sows in group) was 60. The “pregnancy rates (in words)” value in the test with postpartum sows [1] (single timed injection in SAIB post-weaning, single timed insemination, no estrus detection) is “normal pregnancy rates were attained”; in the test on postpartum sows [3] it was “normal pregnancy rates were obtained”. The “litter sizes (in words)” value in the test on postpartum sows [2] is “normal litter sizes”.
